The values below come from ChEMBL document CHEMBL1155185, “Design, synthesis, screening, and molecular modeling study of a new series of ROS1 receptor tyrosine kinase inhibitors” (Bioorg Med Chem Lett, 2009).

The target in the test is Proto-oncogene tyrosine-protein kinase ROS (Homo sapiens) (UniProt P08922). Briefly: Inhibition of ROS1 at 20 uM by HotSpot assay.
Sequence of Proto-oncogene tyrosine-protein kinase ROS (Homo sapiens) (P08922 whole entry): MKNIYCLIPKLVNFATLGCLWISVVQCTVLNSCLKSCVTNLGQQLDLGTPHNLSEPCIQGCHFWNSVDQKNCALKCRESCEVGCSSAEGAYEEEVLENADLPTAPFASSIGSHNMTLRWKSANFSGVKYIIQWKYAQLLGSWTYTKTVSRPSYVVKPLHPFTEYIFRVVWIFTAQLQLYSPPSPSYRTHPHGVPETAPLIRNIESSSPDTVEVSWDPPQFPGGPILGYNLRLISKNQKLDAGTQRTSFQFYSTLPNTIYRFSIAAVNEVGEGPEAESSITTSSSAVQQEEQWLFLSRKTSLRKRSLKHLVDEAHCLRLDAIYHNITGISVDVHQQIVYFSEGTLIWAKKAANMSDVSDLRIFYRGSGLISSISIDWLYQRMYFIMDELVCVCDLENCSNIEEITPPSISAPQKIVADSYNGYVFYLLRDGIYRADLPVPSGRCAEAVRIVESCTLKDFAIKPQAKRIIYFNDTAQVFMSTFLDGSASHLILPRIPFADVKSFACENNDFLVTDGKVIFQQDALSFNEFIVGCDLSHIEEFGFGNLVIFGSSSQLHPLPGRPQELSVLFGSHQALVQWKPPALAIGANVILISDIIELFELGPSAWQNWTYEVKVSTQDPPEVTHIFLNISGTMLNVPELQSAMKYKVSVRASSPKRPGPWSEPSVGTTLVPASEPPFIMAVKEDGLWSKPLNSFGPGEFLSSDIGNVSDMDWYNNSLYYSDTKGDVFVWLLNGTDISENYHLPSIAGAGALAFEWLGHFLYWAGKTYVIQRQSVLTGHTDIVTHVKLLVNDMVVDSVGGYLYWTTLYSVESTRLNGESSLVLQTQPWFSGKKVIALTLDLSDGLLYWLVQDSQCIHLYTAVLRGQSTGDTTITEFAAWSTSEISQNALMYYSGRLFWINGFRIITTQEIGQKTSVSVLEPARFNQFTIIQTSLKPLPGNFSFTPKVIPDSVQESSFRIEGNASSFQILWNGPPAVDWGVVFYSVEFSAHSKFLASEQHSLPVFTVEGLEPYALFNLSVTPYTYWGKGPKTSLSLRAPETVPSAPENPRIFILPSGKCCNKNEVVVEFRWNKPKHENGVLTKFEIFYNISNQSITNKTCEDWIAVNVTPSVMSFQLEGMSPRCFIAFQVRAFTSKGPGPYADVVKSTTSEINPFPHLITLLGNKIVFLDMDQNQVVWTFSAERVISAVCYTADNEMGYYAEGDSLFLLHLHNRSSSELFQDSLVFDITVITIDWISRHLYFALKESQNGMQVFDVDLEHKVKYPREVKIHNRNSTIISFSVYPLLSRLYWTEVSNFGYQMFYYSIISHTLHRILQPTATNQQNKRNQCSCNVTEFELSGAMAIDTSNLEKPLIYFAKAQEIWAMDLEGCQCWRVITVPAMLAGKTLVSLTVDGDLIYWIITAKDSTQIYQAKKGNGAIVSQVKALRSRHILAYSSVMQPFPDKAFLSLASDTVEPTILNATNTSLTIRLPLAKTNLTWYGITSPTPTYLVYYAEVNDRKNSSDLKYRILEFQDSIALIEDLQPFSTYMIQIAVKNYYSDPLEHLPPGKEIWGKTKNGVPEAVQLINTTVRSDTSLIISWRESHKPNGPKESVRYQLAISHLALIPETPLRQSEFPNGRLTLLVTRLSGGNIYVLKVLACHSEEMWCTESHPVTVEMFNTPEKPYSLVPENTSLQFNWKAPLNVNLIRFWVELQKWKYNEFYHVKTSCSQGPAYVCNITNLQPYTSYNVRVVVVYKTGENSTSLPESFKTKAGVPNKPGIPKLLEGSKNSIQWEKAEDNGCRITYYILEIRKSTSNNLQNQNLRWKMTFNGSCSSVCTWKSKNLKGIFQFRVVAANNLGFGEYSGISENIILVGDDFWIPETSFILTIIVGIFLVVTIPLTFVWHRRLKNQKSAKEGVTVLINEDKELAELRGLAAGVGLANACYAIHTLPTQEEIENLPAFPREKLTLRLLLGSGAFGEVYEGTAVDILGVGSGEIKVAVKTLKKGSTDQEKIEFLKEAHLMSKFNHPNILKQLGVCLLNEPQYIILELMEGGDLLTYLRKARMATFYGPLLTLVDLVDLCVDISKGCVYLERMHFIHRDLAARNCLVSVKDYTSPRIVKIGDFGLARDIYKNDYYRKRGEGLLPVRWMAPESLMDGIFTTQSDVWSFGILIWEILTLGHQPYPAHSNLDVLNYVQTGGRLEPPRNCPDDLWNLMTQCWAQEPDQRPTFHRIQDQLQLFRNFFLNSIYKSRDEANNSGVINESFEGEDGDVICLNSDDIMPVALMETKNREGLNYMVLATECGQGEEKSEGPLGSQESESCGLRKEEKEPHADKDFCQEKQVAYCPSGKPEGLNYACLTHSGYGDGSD
`Cc1cc(O)cc(-c2nn(CC#N)cc2-c2ccnc(-c3ccc(Oc4ccccc4)cc3)c2)c1` gave an inhibition of less than 30%.
With `Cc1cc(O)cc(-c2c(-c3ccnc(-c4ccc(Oc5ccccc5)cc4)c3)cnn2CC#N)c1` the figure was less than 30%; with `CC(=O)c1ccc(-c2cc(-c3cn(CC#N)nc3-c3cc(C)cc(O)c3)ccn2)cc1`, less than 30%; with `CC(=O)Nc1cccc(-c2cc(-c3cnn(CC#N)c3-c3cc(C)cc(O)c3)ccn2)c1`, less than 30%.
In turn, `CC(=O)Nc1ccccc1-c1cc(-c2cnn(CC#N)c2-c2cc(C)cc(O)c2)ccn1` displayed an inhibition of less than 30%.
`COc1cc(C)cc(-c2c(-c3ccnc(-c4ccccc4NC(C)=O)c3)cnn2CC#N)c1` came in with an inhibition of less than 30%.
With `COc1cc(C)cc(-c2c(-c3ccc(-c4cccc(C(C)=O)c4)nc3)cnn2CC#N)c1` the figure was less than 30%.
With `Cc1cc(O)cc(-c2c(-c3ccnc(-c4ccc(C#N)cc4)c3)cnn2CC#N)c1` the figure was less than 30%.
Consider `Cc1cc(O)cc(-c2nn(CC#N)cc2-c2ccnc(-c3ccc(C#N)cc3)c2)c1`, for which the inhibition is less than 30%.
For `COc1cc(C)cc(-c2nn(CC#N)cc2-c2ccnc(-c3cccc(C(C)=O)c3)c2)c1` the value was less than 30%; for `COc1cc(C)cc(-c2nn(CC#N)cc2-c2ccnc(-c3ccccc3)c2)c1`, less than 30%; for `COc1cc(C)cc(-c2c(-c3ccnc(-c4cccnc4)c3)cnn2CC#N)c1`, less than 30%.
For `Cc1cc(O)cc(-c2nn(CC#N)cc2-c2ccnc(-c3cccnc3)c2)c1` the value was 96%; for `COc1cc(C)cc(-c2nn(CC#N)cc2-c2ccnc(-c3cccc(NC(C)=O)c3)c2)c1`, less than 30%.
For `CC(=O)c1ccc(-c2cc(-c3cnn(CC#N)c3-c3cc(C)cc(O)c3)ccn2)cc1` the value was less than 30%; for `COc1cc(C)cc(-c2nn(CC#N)cc2-c2ccc(-c3cccc(C(C)=O)c3)nc2)c1`, less than 30%; for `CC(=O)c1ccccc1-c1cc(-c2cnn(CC#N)c2-c2cc(C)cc(O)c2)ccn1`, less than 30%.
On to `Cc1cc(O)cc(-c2nn(CC#N)cc2-c2ccc(-c3cccnc3)nc2)c1`, for which the inhibition is less than 30%.
With `CC(=O)Nc1cccc(-c2cc(-c3cn(CC#N)nc3-c3cc(C)cc(O)c3)ccn2)c1` the figure was less than 30%.
For `COc1cc(C)cc(-c2nn(CC#N)cc2-c2ccnc(-c3ccc(N(C)C)cc3)c2)c1` the value was less than 30%; for `CC(=O)c1cccc(-c2cc(-c3cn(CC#N)nc3-c3cc(C)cc(O)c3)ccn2)c1`, less than 30%; for `CC(=O)c1cccc(-c2cc(-c3cnn(CC#N)c3-c3cc(C)cc(O)c3)ccn2)c1`, less than 30%.
For `COc1cc(C)cc(-c2c(-c3ccnc(-c4ccc(C(C)=O)cc4)c3)cnn2CC#N)c1` the value was less than 30%.
As for `Cc1cc(O)cc(-c2nn(CC#N)cc2-c2ccnc(-c3ccc(N(C)C)cc3)c2)c1`, the inhibition was less than 30%.
With `CC(=O)c1cccc(-c2ccc(-c3cnn(CC#N)c3-c3cc(C)cc(O)c3)cn2)c1` the figure was less than 30%.
For `Cc1cc(O)cc(-c2c(-c3ccnc(-c4ccccc4)c3)cnn2CC#N)c1` the value was less than 30%.
With `Cc1cc(O)cc(-c2c(-c3ccnc(-c4cccnc4)c3)cnn2CC#N)c1` the figure was less than 30%.
For `COc1cc(C)cc(-c2c(-c3ccnc(-c4cccc(C(C)=O)c4)c3)cnn2CC#N)c1`, the inhibition was less than 30%.
For `COc1cc(C)cc(-c2nn(CC#N)cc2-c2ccc(-c3cccnc3)nc2)c1` the value was less than 30%.
With `COc1cc(C)cc(-c2nn(CC#N)cc2-c2ccnc(-c3ccccc3NC(C)=O)c2)c1` the figure was less than 30%.
With `COc1cc(C)cc(-c2c(-c3ccnc(-c4ccccc4C(C)=O)c3)cnn2CC#N)c1` the figure was less than 30%; with `COc1cc(C)cc(-c2c(-c3ccnc(-c4ccccc4)c3)cnn2CC#N)c1`, less than 30%; with `CC(=O)c1ccccc1-c1ccc(-c2cnn(CC#N)c2-c2cc(C)cc(O)c2)cn1`, less than 30%.
The compound `COc1cc(C)cc(-c2c(-c3ccnc(-c4cccc(NC(C)=O)c4)c3)cnn2CC#N)c1` registered an inhibition of less than 30%.
Compound `COc1cc(C)cc(-c2c(-c3ccnc(-c4ccc(N(C)C)cc4)c3)cnn2CC#N)c1` yielded an inhibition of less than 30%.
With `CC(=O)c1ccccc1-c1cc(-c2cn(CC#N)nc2-c2cc(C)cc(O)c2)ccn1` the figure was less than 30%.
With `COc1cc(C)cc(-c2c(-c3ccc(-c4ccccc4C(C)=O)nc3)cnn2CC#N)c1` the figure was less than 30%; with `Cc1cc(O)cc(-c2c(-c3ccnc(-c4ccc(N(C)C)cc4)c3)cnn2CC#N)c1`, less than 30%.
With `COc1cc(C)cc(-c2c(-c3ccc(-c4cccnc4)nc3)cnn2CC#N)c1` the figure was less than 30%; with `COc1cc(C)cc(-c2nn(CC#N)cc2-c2ccnc(-c3ccc(Oc4ccccc4)cc3)c2)c1`, less than 30%.
For the compound `COc1cc(C)cc(-c2nn(CC#N)cc2-c2ccnc(-c3ccccc3C(C)=O)c2)c1`, the inhibition was less than 30%.
For `CC(=O)c1ccccc1-c1ccc(-c2cn(CC#N)nc2-c2cc(C)cc(O)c2)cn1` the value was less than 30%; for `COc1cc(C)cc(-c2c(-c3ccnc(-c4ccc(Oc5ccccc5)cc4)c3)cnn2CC#N)c1`, less than 30%.
With `COc1cc(C)cc(-c2nn(CC#N)cc2-c2ccnc(-c3cccnc3)c2)c1` the figure was less than 30%.
With `COc1cc(C)cc(-c2nn(CC#N)cc2-c2ccnc(-c3ccc(C(C)=O)cc3)c2)c1` the figure was less than 30%; with `COc1cc(C)cc(-c2nn(CC#N)cc2-c2ccnc(-c3ccc(C#N)cc3)c2)c1`, less than 30%.
On to `CC(=O)c1cccc(-c2ccc(-c3cn(CC#N)nc3-c3cc(C)cc(O)c3)cn2)c1`, for which the inhibition is less than 30%.
For `CC(=O)Nc1ccccc1-c1cc(-c2cn(CC#N)nc2-c2cc(C)cc(O)c2)ccn1` the value was less than 30%; for `COc1cc(C)cc(-c2nn(CC#N)cc2-c2ccc(-c3ccccc3C(C)=O)nc2)c1`, less than 30%.
For `Cc1cc(O)cc(-c2nn(CC#N)cc2-c2ccnc(-c3ccccc3)c2)c1` the value was less than 30%.
For the compound `COc1cc(C)cc(-c2c(-c3ccnc(-c4ccc(C#N)cc4)c3)cnn2CC#N)c1`, the inhibition is less than 30%.

For orientation: inhibition means the relative decrease from the control value, in per cent. Higher therefore signals strong suppression.
